Source: patent US11926628B2 (Gilead Sciences, Inc., priority 2021, dated 2024)

What was measured:
human DGKα = human DGKα (Homo sapiens (Human), UniProt P23743); assay: DGKα Biochemical Activity Assay (ADP-Glo); details: recombinant DGKα 1 nM, 100 μM ATP, 18:1 DAG/POPS/octylglucoside micelles, 1 hour at 25° C.; geometric mean; read-out: HTBS DGKa 1X ATP KM IC50
Outline: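 Recombinant DGKα (1 nM final) was preincubated with compound for 15 min, then reacted for 1 h at 25 °C with 100 μM ATP and octylglucoside micelles of 0.85 mM 18:1 DAG and 6.75 mM POPS in pH 7.2 MOPS with 5 mM MgCl2. ADP formed was read by ADP-Glo luminescence. IC50 came from four-parameter fits normalized to DMSO and 50 μM CU3, and values were geometric means.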

[1] = test system: Jurkat NFκB-luciferase cells; assay: Jurkat NFκB-Luciferase Assay; format: cell-based; details: Homo sapiens; Jurkat NFκB-luciferase cells activated with anti-CD3 antibody (OKT3), 2.5 hrs at 37° C.; geometric mean; read-out: DGK NFKb Luciferase EC50
Outline: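 Jurkat NFκB-luciferase reporter cells stimulated on plate-bound anti-CD3 (5 ug/ml coating) with compound, 2.5 hrs at 37° C then 30 min at 25° C; luminescence read with One-Glo Ex. Normalized to DMSO (basal) and 1 micromolar compound (maximum) controls; EC50 from four-parameter fit, geometric mean across experiments.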

Sequence of human DGKα (P23743 whole entry): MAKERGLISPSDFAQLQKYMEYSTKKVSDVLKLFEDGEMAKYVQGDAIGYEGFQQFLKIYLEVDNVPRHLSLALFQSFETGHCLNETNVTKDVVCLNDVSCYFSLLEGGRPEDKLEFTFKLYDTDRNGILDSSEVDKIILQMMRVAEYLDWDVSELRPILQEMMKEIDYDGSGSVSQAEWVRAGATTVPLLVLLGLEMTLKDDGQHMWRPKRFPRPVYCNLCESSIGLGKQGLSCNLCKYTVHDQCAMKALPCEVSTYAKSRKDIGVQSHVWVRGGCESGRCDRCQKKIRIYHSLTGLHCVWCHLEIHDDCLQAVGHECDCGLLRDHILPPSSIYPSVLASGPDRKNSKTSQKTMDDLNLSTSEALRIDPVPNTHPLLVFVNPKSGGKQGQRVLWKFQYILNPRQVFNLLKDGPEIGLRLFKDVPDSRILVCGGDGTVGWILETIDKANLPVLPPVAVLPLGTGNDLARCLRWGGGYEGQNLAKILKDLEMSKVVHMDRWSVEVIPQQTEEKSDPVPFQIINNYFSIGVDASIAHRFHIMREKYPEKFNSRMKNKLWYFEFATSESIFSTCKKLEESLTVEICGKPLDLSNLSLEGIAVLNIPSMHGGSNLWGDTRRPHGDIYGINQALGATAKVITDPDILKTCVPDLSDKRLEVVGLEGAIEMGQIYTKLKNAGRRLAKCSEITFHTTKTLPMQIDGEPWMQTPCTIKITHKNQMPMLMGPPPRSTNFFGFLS

Row | SMILES | IC50 (human DGKα) [nM] | EC50 [1] [nM]
1 | Fc1cncc2c1c(N1CCCc3c(C#CC4(C(F)(F)F)CC4)cccc31)nc1nncn12 [Example 87, 10-fluoro-8-[5-[2-[1-(trifluoromethyl)cyclopropyl]ethynyl]-3,4-dihydro-2H-quinolin-1-yl]-2,4,5,7,12-pentazatricyclo[7.4.0.02,6]trideca-1(13),3,5,7,9,11-hexaene] | 8.6 | 0.839
2 | CCN(c1cc(F)cc(C#CC(C)(C)C(F)(F)F)c1)c1nc2nncn2c2cncc(F)c12 [Example 88, N-ethyl-10-fluoro-N-[3-fluoro-5-(4,4,4-trifluoro-3,3-dimethyl-but-1-ynyl)phenyl]-2,4,5,7,12-pentazatricyclo[7.4.0.02,6]trideca-1(13),3,5,7,9,11-hexaen-8-amine] | 41.1 | 1.22
3 | CCN(c1cc(F)cc(C#CC2(C)CC2)c1)c1nc2nncn2c2cncc(F)c12 [Example 89, N-ethyl-10-fluoro-N-[3-fluoro-5-[2-(1-methylcyclopropyl)ethynyl]phenyl]-2,4,5,7,12-pentazatricyclo[7.4.0.02,6]trideca-1(13),3,5,7,9,11-hexaen-8-amine] | 6.18 | 0.655
4 | CCN(c1cc(F)cc(C#CC2(C(F)(F)F)CC2)c1)c1nc2nncn2c2cncc(F)c12 [Example 90, N-ethyl-10-fluoro-N-[3-fluoro-5-[2-[1-(trifluoromethyl)cyclopropyl]ethynyl]phenyl]-2,4,5,7,12-pentazatricyclo[7.4.0.02,6]trideca-1(13),3,5,7,9,11-hexaen-8-amine] | 12 | 0.715
5 | CN(c1cc(F)cc(C#CC2(C)CC2)c1)c1nc2nncn2c2cncc(F)c12 [Example 91, 10-fluoro-N-[3-fluoro-5-[2-(1-methylcyclopropyl)ethynyl]phenyl]-N-methyl-2,4,5,7,12-pentazatricyclo[7.4.0.02,6]trideca-1(13),3,5,7,9,11-hexaen-8-amine] | 6.25 | 1.25
6 | CN(c1cc(F)cc(C#CC(C)(C)O)c1)c1nc2nncn2c2cncc(F)c12 [Example 92, 4-[3-fluoro-5-[(10-fluoro-2,4,5,7,12-pentazatricyclo[7.4.0.02,6]trideca-1(13),3,5,7,9,11-hexaen-8-yl)-methyl-amino]phenyl]-2-methyl-but-3-yn-2-ol] | 17.4 | 32.1
7 | CN(c1cc(F)cc(C#CC2(C(F)(F)F)CC2)c1)c1nc2nncn2c2cncc(F)c12 [Example 93, 10-fluoro-N-[3-fluoro-5-[2-[1-(trifluoromethyl)cyclopropyl]ethynyl]phenyl]-N-methyl-2,4,5,7,12-pentazatricyclo[7.4.0.02,6]trideca-1(13),3,5,7,9,11-hexaen-8-amine] | 7.17 | 0.763
8 | Cc1nnc2nc(N3CCOCc4c(C#CC5(C(C)(F)F)CC5)cccc43)c3c(F)cncc3n12 [Example 94, 6-((1-(1,1-difluoroethyl)cyclopropyl)ethynyl)-1-(6-fluoro-1-methylpyrido[4,3-e][1,2,4]triazolo[4,3-a]pyrimidin-5-yl)-1,2,3,5-tetrahydrobenzo[e][1,4]oxazepine] | 25.1 | 3.39
9 | Cc1nnc2nc(N3CCOCc4c(C#Cc5cnn(C)c5)cccc43)c3c(F)cncc3n12 [Example 95, 1-(6-fluoro-1-methylpyrido[4,3-e][1,2,4]triazolo[4,3-a]pyrimidin-5-yl)-6-((1-methyl-1H-pyrazol-4-yl)ethynyl)-1,2,3,5-tetrahydrobenzo[e][1,4]oxazepane] | 6.95 | 31.2
10 | Cc1nnc2nc(N3CCOCc4c(C#CC(C)(C)C#N)cccc43)c3c(F)cncc3n12 [Example 96, 4-(1-(6-fluoro-1-methylpyrido[4,3-e][1,2,4]triazolo[4,3-a]pyrimidin-5-yl)-1,2,3,5-tetrahydrobenzo[e][1,4]oxazepin-6-yl)-2,2-dimethylbut-3-ynenitrile] | 3.84 | 6.63
11 | Cc1nnc2nc(N3CCCc4c(C#CC(C)(C)C#N)cccc43)c3c(F)cncc3n12 [Example 97, 4-(1-(6-fluoro-1-methylpyrido[4,3-e][1,2,4]triazolo[4,3-a]pyrimidin-5-yl)-1,2,3,4-tetrahydroquinolin-5-yl)-2,2-dimethylbut-3-ynenitrile] | 4.65 | 4.1
12 | Cc1nnc2nc(N3CCCc4c(C#CC(C)(C)O)cccc43)c3cc(F)cnc3n12 [Example 98, 4-(1-(3-fluoro-9-methylpyrido[3,2-e][1,2,4]triazolo[4,3-a]pyrimidin-5-yl)-1,2,3,4-tetrahydroquinolin-5-yl)-2-methylbut-3-yn-2-ol] | 49 | 26.2
13 | Cc1nnc2nc(N(CC(F)F)c3cc(F)cc(C#CC(C)(C)O)c3)c3cc(F)cnc3n12 [Example 99, 4-(3-((2,2-difluoroethyl)(3-fluoro-9-methylpyrido[3,2-e][1,2,4]triazolo[4,3-a]pyrimidin-5-yl)amino)-5-fluorophenyl)-2-methylbut-3-yn-2-ol] | 38.9 | 53.1
14 | Cc1nnc2nc(N3CCCc4c(C#CC5(C(F)F)CC5)cccc43)c3cc(F)cnc3n12 [Example 100, 5-(5-((1-(difluoromethyl)cyclopropyl)ethynyl)-3,4-dihydroquinolin-1(2H)-yl)-3-fluoro-9-methylpyrido[3,2-e][1,2,4]triazolo[4,3-a]pyrimidine] | 7.93 | 2.26
15 | Cc1nnc2nc(N3CCCc4c(C#CC5(C(F)(F)F)CC5)cccc43)c3cc(F)cnc3n12 [Example 101, 3-fluoro-9-methyl-5-(5-((1-(trifluoromethyl)cyclopropyl)ethynyl)-3,4-dihydroquinolin-1(2H)-yl)pyrido[3,2-e][1,2,4]triazolo[4,3-a]pyrimidine] | 6.21 | 1.01
16 | Cc1nnc2nc(N3CCCc4c(C#CC(C)(C)C(F)(F)F)cccc43)c3cc(F)cnc3n12 [Example 102, 3-fluoro-9-methyl-5-(5-(4,4,4-trifluoro-3,3-dimethylbut-1-yn-1-yl)-3,4-dihydroquinolin-1(2H)-yl)pyrido[3,2-e][1,2,4]triazolo[4,3-a]pyrimidine] | 21.4 | 1.8
17 | Cc1nnc2nc(N(CC(F)F)c3cc(F)cc(C#CC(C)(C)C(F)(F)F)c3)c3cc(F)cnc3n12 [Example 103, N-(2,2-difluoroethyl)-3-fluoro-N-(3-fluoro-5-(4,4,4-trifluoro-3,3-dimethylbut-1-yn-1-yl)phenyl)-9-methylpyrido[3,2-e][1,2,4]triazolo[4,3-a]pyrimidin-5-amine] | 9.34 | 1.64
18 | Cc1nnc2nc(N(CC(F)F)c3cc(F)cc(C#CC4(C)CC4)c3)c3cc(F)cnc3n12 [Example 104, N-(2,2-difluoroethyl)-3-fluoro-N-(3-fluoro-5-((1-methylcyclopropyl)ethynyl)phenyl)-9-methylpyrido[3,2-e][1,2,4]triazolo[4,3-a]pyrimidin-5-amine] | 14.5 | 3.53
19 | Cc1nnc2nc(N(CC(F)F)c3cc(F)cc(C#CC4(C(F)F)CC4)c3)c3cc(F)cnc3n12 [Example 105, N-(2,2-difluoroethyl)-N-(3-((1-(difluoromethyl)cyclopropyl)ethynyl)-5-fluorophenyl)-3-fluoro-9-methylpyrido[3,2-e][1,2,4]triazolo[4,3-a]pyrimidin-5-amine] | 13.3 | 5.57
20 | Cc1nnc2nc(N(CC(F)F)c3cc(F)cc(C#CC4(C(F)(F)F)CC4)c3)c3cc(F)cnc3n12 [Example 106, N-(2,2-difluoroethyl)-3-fluoro-N-(3-fluoro-5-((1-(trifluoromethyl)cyclopropyl)ethynyl)phenyl)-9-methylpyrido[3,2-e][1,2,4]triazolo[4,3-a]pyrimidin-5-amine] | 6.42 | 2.25
21 | Cc1nnc2nc(N3CCCc4c(C#CC5(C)CC5)cccc43)c3cc(F)cnc3n12 [Example 107, 3-fluoro-9-methyl-5-(5-((1-methylcyclopropyl)ethynyl)-3,4-dihydroquinolin-1(2H)-yl)pyrido[3,2-e][1,2,4]triazolo[4,3-a]pyrimidine] | 11.9 | 1.85
22 | Fc1cnc2c(c1)c(N1CCCc3c(C#CC4(C(F)F)CC4)cccc31)nc1nncn12 [Example 108, 5-(5-((1-(difluoromethyl)cyclopropyl)ethynyl)-3,4-dihydroquinolin-1(2H)-yl)-3-fluoropyrido[3,2-e][1,2,4]triazolo[4,3-a]pyrimidine] | 3.43 | 3.08
23 | CC1(C#Cc2cccc3c2CCCN3c2nc3nncn3c3ncc(F)cc23)CC1 [Example 109, 3-fluoro-5-(5-((1-methylcyclopropyl)ethynyl)-3,4-dihydroquinolin-1(2H)-yl)pyrido[3,2-e][1,2,4]triazolo[4,3-a]pyrimidine] | 5.62 | 1.75
24 | COc1ccc2c(N(C)c3cccc(C#CC(C)(C)O)c3)nc3nncn3c2n1 [Example 114, 4-(3-((2-methoxypyrido[3,2-e][1,2,4]triazolo[4,3-a]pyrimidin-5-yl)(methyl)amino)phenyl)-2-methylbut-3-yn-2-ol] | 75.4 | 27
25 | COc1ccc2c(N(C)c3cccc(-c4ccc(S(F)(F)(F)(F)F)cc4)c3)nc3nncn3c2n1 [Example 115, 2-methoxy-N-methyl-N-(4′-(pentafluoro-16-sulfaneyl)-[1,1′-biphenyl]-3-yl)pyrido[3,2-e][1,2,4]triazolo[4,3-a]pyrimidin-5-amine] | 448 | 1.74
